Like-named read-outs stand apart in the source and are kept apart here.
Columns and labels:
[1] = system: A549 lung carcinoma cell line xenograft; assay: Mouse xenograft model with A549 lung carcinoma cell line; format: in vivo
Procedure: Based on the improved rat PK for 14c, it was dosed at 2 and 6 mpk along with lead 1 at 30 mpk—in an effort to achieve similar in vivo exposure profiles—in a mouse xenograft model with the lung carcinoma cell line A549 (Figure 4). […] The 6 mpk dose of 14c reduced the tumor volume by more than 50%. Regrowth was included to assess a possible growth lag period, but as expected, tumor regrowth resumed following mTOR inhibitor withdrawal.[22]
All animal studies were conducted in accordance with Takeda California Institutional Animal Care and Use Committee guidelines in a facility accredited by the American Association for Accreditation of Laboratory Animal Care. Female Nu/Nu mice (Balb/c), approximately 28 days of age and weighing 20 to 23 grams were obtained from Harlan Laboratories. Immuno-compromised and/or inbred mice are used extensively for in vivo cancer research for detecting pharmacological capabilities induced by anti-cancer agents and therefore were chosen as the most appropriate animal model for this study. Five million A549 cells/animal (0.2 mL) w/ Matrigel were implanted S.C. into the right flank of Balb/c Nu/Nu mice.
Low passage A549 cells were grown in F12 media and supplied at a concentration of 50 million cells/mL in DPBS. Treatment was initiated when all study animals had small tumors averaging approximately 150-180 mg. Dosing solutions/suspensions were prepared every 5 days. Compound 1 was suspended in 30% Captisol in 0.05 M MSA pH ~1.5. Compound 14c was suspended in 0.5% MC. Dose solutions/suspensions were given orally at a dose volume of 5 mL/kg. […] The general health of the mice was monitored, and mortality was assessed daily. Tumor dimensions were recorded 2 times per week starting one day before the first day of treatment. Toxicity was assessed as net body weight loss and lethality. Tumor weights are calculated using the equation (a x b2)/2, where a and b refer to the larger and smaller dimensions collected at each measurement. Error bars in each plot of % tumor volume change vs. days of treatment were calculated as the standard error of the means. […]

[2] = system: pAKT-S473 in PC-3 cells (TORC2); assay: Cellular p-AKT (ser473) AlphaScreen assay in PC-3 cells (TORC2 activity); format: cell-based, human; conditions: for IC50: read-out: pAKT S473 Cell IC50
Procedure: The target product profile for 1 and the next-generation analogs described here was for a dual inhibitor against both TORC1 and TORC2.
FRAP1 (mTOR) recombinant protein and GFP-4E-BP1 were purchased from Invitrogen (Carlsbad, CA, US).
The kinase activity assay was conducted in 50 mM Hepes buffer containing 10 mM MgCl2, 0.01% Brij, 0.2 mM EDTA, 2 mM DTT and 1% DMSO (after compound addition) at pH 7.3.
The IC50 value for each compound was determined in the presence of compound (various concentrations, from 0 to 10 μM) and a fixed amount of ATP (50 μM, final concentration), substrate GFP-4E-BP1 (400 nM, final concentration). The enzymatic reaction was initiated by adding FRAP1 (mTOR) (2 nM, final concentration). The assay was conducted at room temperature (~22 °C). After 30 min, the enzymatic reaction was stopped using Tb-anti-p4E-BP1 (2 nM final concentration, Invitrogen) and EDTA (20 mM final concentration, Sigma) in TR-FRET dilution buffer provided by Invitrogen. All the reagents were dispensed using a Multidrop Combi reagent dispenser (ThermoFisher Scientific, Waltham, […]
The release of product was detected using a BMG PHERAstar plate reader (BMG LABTECH, Ortenberg, Germany) and the Lantha Screen module (337 nm excitation wavelength) and measuring the ratio of fluorescence 520/490 nm (emission wavelengths). Experimental data was fitted using Eq. (1):
Vi and Vo are the rates of the enzyme activity in the presence and in the absence of inhibitor; n is the Hill coefficient; I is the free inhibitor concentration; IC 50 is a measure of potency that is equivalent to a […]
Cellular p-AKT (ser473) assay in PC-3 cells
PC-3 cells (PTEN deleted, human prostate cell line) were maintained in F12K media with 10% heat-inactivated fetal bovine serum (FBS) in 37 °C, 5% CO2 incubator. This method describes the procedure […]
from Perkin Elmer (catalog# TGRAS500). On day 1, 50,000 PC-3 cells were plated in 160 µL complete […]
Plates were placed in 37 °C, 5%
CO2 incubator for 24 h. On day 2, all media was removed and replaced with 160 µL starvation media which is F12K media (no FBS) and 0.1% BSA. Plates are placed in 37 °C, 5% CO2 incubator for 16 h. On day 3, compounds were both solubilized and serially diluted in DMSO and added to a secondary plate containing starvation media. 40 µL of compound/starvation media were added to the 160 µL in cell plate and plates were placed back in the incubator for 1 h. Cells were then activated by adding 22 µL FBS (for a final concentration of 10% FBS) for 10 min in the incubator. Media was removed from the well and cells were lysed in 100 µL SureFire kit lysis buffer and then shake n for 15 min at 900 rpm. AlphaScreen […]
assay was performed according to manufacturer’s instructions. 4 µL of lysate was added to PerkinElmer 96-well Proxiplate then 5 µL of Reaction Buffer plus Activation Buffer. Plates were shaken for 2 h at room temperature. 2 µL of Donor Beads in Dilution Buffer were added to the plate and the plate was shaken for 2 h at room temperature. The plate was read using BMG Labtech PHERAstar using AlphaScreen settings. Each analog was run in duplicate wells and a single IC50 value was calculated in […]

[3] = Rat PK (iv and po); format: in vivo; conditions: for frac. abs.: estimated from %F, Cl and Qh = 70 mL min^–1 kg^–1; for bioavailability: in vivo, 4 mg/kg; for bioavailability / Cl / Vd: iv 1 mpk; for bioavailability / Cmax: po 4 mpk in 0.5% methylcellulose
From the text: This was an early indication that the strategy of increasing potency while lowering lipophilicity would allow us to meet our goal of improving prospects for favorable PK and dose.

[4] = Homo sapiens, PC-3, PC-3 cell line
[5] = Homo sapiens, p-AKT S473, PC-3 cells, mean of N runs, read-out: Cell pEC50 (converted)

SMILES	Tumor growth ([1]; 2 mpk po QD 14 days)	Tumor volume reduction ([1]; 6 mpk po QD 14 days)	IC50 [2, 4] [nM]	EC50 [2, 5] [nM]	IC50 ([2]; PC-3 cell line) [nM]	frac. abs. [3] [%]	bioavailability [3] [%]	Cl [3] [mL min^–1 kg^–1]	Vd [3] [L/kg]	Cmax [3] [nM]	Tumor growth ([1]; 30 mpk po QD 14 days)	EC50 ([2]; Homo sapiens, PC-3, Figure 1 profile, read-out: cell EC50) [nM]
C[C@@]12COCCN1c1nc(-c3cccc4[nH]ccc34)ncc1N([C@H]1CC[C@H](O)CC1)C2=O [14c]	fully inhibited tumor growth	more than 50%	10	12.6	13	100	94	7.0	1.3	1600		
CC(F)(F)CN1C(=O)[C@]2(C)COCCN2c2nc(-c3ccc(NC(=O)NC4CC4)cc3)ncc21 [compound 1]			70	70.8		22	20	6.9	0.95	320	fully inhibited tumor growth	70
